Assay results: patent US20250000885A1, “COMPOSITION COMPRISING TWO OR MORE OLIGOSACCHARIDES” (Children's Hospital Los Angeles, priority 2022, published 2025)

Experiments:
[1] = system: infant regional cerebral blood flow (rCBF); assay: Arterial Spin Labeling (rCBF) of newborn brain vs HMO concentration in mother's milk at 1-month, voxel-wise multiple linear regression; format: in vivo, human; settings: for association of exposure with rCBF: milk concentration at 1-month, total sample N=20, FDR-corrected; for B, association of exposure with rCBF: white matter
Excerpt: (§1) Twenty mother-infant pairs were recruited from maternity clinics in Los Angeles County as part of a larger cohort study, and inclusion criteria has been previously described. Briefly, mothers were included if they were ≥18 years old at delivery, had given birth to a full-term singleton newborn, were breastfeeding, and were enrolled within 1 month from delivery. […] The Institutional Review Board of Children's Hospital Los Angeles approved all procedures. Participants provided written informed consent prior to data collection.
(§2) Mother-infant pairs were assessed at 1-month postpartum. Historical health-related information was collected. Mothers pumped a full expression of breast milk that was analyzed for individual HMO concentrations. Infants underwent magnetic resonance imaging (MRI) scanning at approximately 1-month postpartum to assess brain tissue microstructure and regional cerebral blood flow (rCBF).
(§3) Breast milk was collected and analyzed following standard procedures. Mothers were asked to avoid eating and drinking for 1-hour and feeding or pumping breast milk for 1.5-hours before collection. Mothers were encouraged to pump the entire contents of a single breast expression to ensure collection of fore, mid, and hind milk to standardize milk collection as much as possible. Aliquots were stored at −80° C. until HMO characterization at the University of California San Diego. Raffinose was added to each sample as an internal standard for absolute quantification. HMOs were isolated with high-throughput solid-phase extraction, fluorescently labeled, and measured using HPLC. Nineteen HMOs were quantified based on standard retention times and mass spectrometric analysis, which accounted for >90% of total HMO composition. The initial focus, however, was on the most abundant fucosylated and sialylated HMOs reported to influence brain development in animals and infants: 2′FL, 3FL, 3′SL, and 6′SL. Secretor status was defined by the presence or near absence of HMOs 2′FL or lacto-N-fucopentaose I.
(§4) MRI data were collected on a 3 Tesla Philips Achieva MRI scanner equipped with a 32-channel receive-only head coil. All data were acquired without sedation or contrast agent. Mothers and staff lulled infants to sleep with feeding and swaddling. Scans were visually monitored and repeated for any visible motion. Detailed image quality was assessed during preprocessing within 48 hours of scan acquisition.
Arterial Spin Labeling (ASL), which quantifies rCBF, a surrogate measure of cellular metabolism: The rCBF brain images and the Mo_wM image to the first rCBF image for each participant were aligned in native imaging space to correct for head motion. Images with >0.5 mm inter-frame motion were excluded from further processing. […] An in-house software was used to construct for each infant a voxel-wise map of rCBF from the ASL time series and Mo_wm image: 1) pair-wise subtracted the control images from the labeled images; 2) Perfusion-weighted images were calculated by pair-wise subtraction of the control and labeled images, followed by averaging across the imaging time series. The perfusion map (rCBF) was calculated using a single compartment model. A linear transformation with 6 degrees of freedom was used to coregister the quantitative rCBF maps for each infant to their T1-weighted anatomical images, which were in turn used as an intermediary source to coregister the rCBF images for each infant to the final brain template. […]

[2] = system: infant brain tissue microstructure; assay: Diffusion Tensor Imaging (FA, MD) of newborn brain vs HMO concentration in mother's milk at 1-month, voxel-wise multiple linear regression; format: in vivo, human; settings: for association of exposure with FA values / association of exposure with MD values: milk concentration at 1-month, total sample N=20, FDR-corrected
Excerpt: as §1, §2, §3, §4
Diffusion Tensor Imaging (DTI), which measures the diffusion of water as influenced by characteristics of brain tissue microstructure: The template brain was selected using a 2-step procedure to find the brain that was morphologically representative of all brains in our sample, as described in FIG. 1. Quality assurance procedures were instituted to exclude datasets with excessive motion. The diffusion tensor (D) was estimated at each voxel of the pre-processed DTI data in DSI Studio (RRID:SCR_009557) and computed the scalar indices fractional anisotropy (FA), mean diffusivity (MD), axial diffusivity (AD), and radial diffusivity (RD). These maps were edited to remove nonbrain tissue and then were threshed to remove background noise. Edited MD map was used to mask out nonbrain tissue in the FA, AD, and RD maps. The edited maps for each infant were coregistered using a rigid body transformation (3 translations and 3 rotations) to the infant's T1-weighted (T1w) anatomical image, which were in turn used as an intermediary source to coregister the maps for each infant to the final template brain. The FA, AD, MD, and RD maps were then smoothed using a Gaussian kernel with FWHM=4 mm.
Descriptive statistics are presented as mean±standard deviation (SD) for continuous variables and as frequency (percentage) for categorical variables. Normal distribution and homogeneity of variances were confirmed by Shapiro-Wilks W and Levene's tests. Values >3 SD from the mean were identified as outliers. […]

[3] = system: piglets; settings: cited from earlier work; for learning and memory tasks compared to controls: piglets fed the substance; for cognitive performance: piglets, feeding

Row | SMILES | association of exposure with rCBF [1] | association of exposure with FA values [2] | association of exposure with MD values [2] | learning and memory tasks compared to controls [3] | cognitive performance [3] | B, association of exposure with rCBF ([1]; CC) | B, association of exposure with rCBF ([1]; IC) | B, association of exposure with rCBF ([1]; aCR) | B, association of exposure with MD values ([2]; left posterior corona radiata, pCR) | B, association of exposure with FA values ([2]; right DLPFC) | B, association of exposure with FA values ([2]; right aCR)
1 | CC(=O)N[C@H]1[C@H]([C@H](O)[C@H](O)CO)O[C@@](OC[C@H]2O[C@@H](O[C@H]3[C@H](O)[C@@H](O)[C@H](O)O[C@@H]3CO)[C@H](O)[C@@H](O)[C@H]2O)(C(=O)O)C[C@@H]1O [6′SL, 6′-sialyllactose, reference compound] | not significantly associated | not significantly associated | not significantly associated | performed better on learning and memory tasks | improved cognitive performance |  |  |  |  |  | 
2 | CC(=O)N[C@H]1[C@H]([C@H](O)[C@H](O)CO)O[C@@](O[C@H]2[C@@H](O)[C@@H](CO)O[C@@H](O[C@H]3[C@H](O)[C@@H](O)C(O)O[C@@H]3CO)[C@@H]2O)(C(=O)O)C[C@@H]1O (stereo partly shown) [3′SL, 3′-sialyllactose] | increased rCBF | increased FA values | reduced MD values | performed better on learning and memory tasks | improved cognitive performance | 0.06 | 0.04 | 0.07 | −0.10 | 0.03 | 0.04
